The results in this text go back to patent US7414042B2, “Method and composition for selectively inhibiting melanoma” (The Board of Trustees of The University of Illinois, priority 1995, dated 2008).

In brackets after ≈: the same amount, converted by molar mass. Read-outs that look alike come from different tables or passages of the source.

For data set [1], the system named is A431 (squamous cells). The data set is described as follows: Cytotoxicity against cultured human cancer cells (SRB). It is filed as cell-based. The note with it: three days incubation, SRB; for IC50: Homo sapiens, A-431, 72 h, read-out: ED50 A431. On the procedure: (§1) The plates were incubated for three days. […] Dose response studies were performed to generate ED50 values.

Data set [2] concerns BC-1 (breast). Described as above. Type of data set: cell-based. The note with it: three days incubation, SRB; for IC50: Homo sapiens, 72 h, read-out: ED50 BC-1. On the procedure: as §1
Data set [3] has as its system COL-2 (colon). The description is as above. The conditions noted are these: three days incubation, SRB; for IC50: Homo sapiens, Col2, 72 h, read-out: ED50 COL-2. Type of data set: cell-based. On the procedure:
as §1

Data set [4] deals with HT-1080 (sarcoma). The data set is described as above. It is filed as cell-based. The note with it: three days incubation; for IC50: Homo sapiens, HT-1080, 72 h, read-out: ED50 HT-1080. The protocol:
as §1

The test system of data set [5] is KB (human oral epidermoid carcinoma). Described as above. The conditions noted are these: three days incubation, SRB, Table 1; for IC50: Homo sapiens, 72 h, read-out: ED50 KB. Type of data set: cell-based. On the procedure:
as §1

For data set [6], the system named is LNCaP (prostate). The data set is described as above. The note with it: three days incubation, SRB; for IC50: Homo sapiens, LNCaP, 72 h, read-out: ED50 LNCaP. It is filed as cell-based. On the procedure: as §1
Data set [7] relates to LU-1 (lung). The data set is described as above. Type of data set: cell-based. The conditions noted are these: three days incubation; for IC50: Homo sapiens, 72 h, read-out: ED50 LU-1. The protocol: as §1
In data set [8] the test system is U373 (glioma). The description is as above. It is filed as cell-based. The note with it: three days incubation, SRB; for IC50: Homo sapiens, U373 MG, 72 h, read-out: ED50 U373. The protocol: as §1
In data set [9] the test system is ZR-75-1 (breast). The data set is described as above. It is filed as cell-based. The note with it: three days incubation, SRB; for IC50: Homo sapiens, ZR-75-1, 72 h, read-out: ED50 ZR 75-1. The protocol:
as §1

The test system of data set [10] is MEL-2 (melanoma). The data set is described as follows: Cytotoxicity against cultured human melanoma cells (SRB). Type of data set: cell-based. The note with it: three days incubation, SRB, Table 1 and text; for IC50: Homo sapiens, MEL2, 72 h, read-out: ED50 MEL-2. On the procedure: as §1
Data set [11] relates to human melanoma and nonmelanoma cancer cell lines.
Experimental: (§2) In the following Table 1, the extracted betulinic acid and the other pure compounds were tested for cycotoxity against the following cultured human cell lines: A431 (squamous cells), BC-1 (breast), COL-2 (colon), HT-1080 (sarcoma), KB (human oral epidermoid carcinoma), LNCaP (prostate), LU-1 (lung), MEL-2 (melanoma), U373 (glioma) and ZR-75-1 (breast).
(§3) Cytotoxicity of the crude extracts and purified compounds was determined in a number of cultured human cancer cell lines. The cells were cultured in appropriate media and under standard conditions. To maintain logarithmic growth, the media were changed 24 hours prior to cytotoxic assays. On the day of the assay, the cells were harvested by trypsinization, counted, diluted in media, and added to 96-well plates containing test compounds dissolved in DMSO; the final DMSO concentration was 0.05%.
(§4) The plates were incubated for three days. Following the incubation period, the cells were fixed and stained with sulforhodamine B (SRB) dye. The bound dye was liberated with Tris base, and the OD515 was measured on an ELISA reader. The growth of the betulinic acid-treated cells was determined by the OD515 values, and the growth was compared to the OD515 values of DMSO-treated control cells. Dose response studies were performed to generate ED50 values.
(§5) The biological evaluation of the derivatives focused on the activity against human melanoma cell lines. In particular, the following betulinic acid derivatives were prepared and tested for cytotoxicity profile against human melanoma cell lines and against a number of selected nonmelanoma cell lines.
For data set [12] the test system is unchanged. The data set is described as follows: Cytotoxicity profile across the panel of human cancer cell lines. The conditions noted are these: Table 1 panel.
Experimental: as §2, §3, §4, §5

As to `Cc1c2ccncc2c(C)c2c1[nH]c1ccccc12` [Ellipticine], the IC50 in data set [1] was 0.5 µg/mL (≈ 2.03 µM); in data set [2] it was 0.2 µg/mL (≈ 0.812 µM); in data set [3] it was 0.3 µg/mL (≈ 1.22 µM); in data set [4] it was 1.8 µg/mL (≈ 7.31 µM); in [5] it was 0.04 µg/mL (≈ 0.162 µM); in [6], 0.8 µg/mL (≈ 3.25 µM). Also, the IC50 in data set [7] was found to be 0.02 µg/mL (≈ 0.0812 µM); in [8], 1.6 µg/mL (≈ 6.5 µM); in data set [9] it was 0.9 µg/mL (≈ 3.65 µM); in data set [10] it was 0.9 µg/mL (≈ 3.65 µM). The “cytotoxic activity profile, cell-type selectivity” value in data set [11] is on record as “relatively intense, nonselective cytotoxic activity”.
With `COC(=O)C[C@](O)(CCCC(C)(C)O)C(=O)O[C@@H]1C(OC)=C[C@]23CCCN2CCc2cc4c(cc2[C@H]13)OCO4` [Homoharringtonine], the IC50 amounted to 0.02 µg/mL (≈ 0.0367 µM) in [1]; 0.03 µg/mL (≈ 0.055 µM) in data set [2]; 0.1 µg/mL (≈ 0.183 µM) in data set [3]; 0.01 µg/mL (≈ 0.0183 µM) in data set [4]; 0.03 µg/mL (≈ 0.055 µM) in [6]; 0.03 µg/mL (≈ 0.055 µM) in data set [7]. Further, the IC50 is 0.2 µg/mL (≈ 0.367 µM) in data set [8], 0.06 µg/mL (≈ 0.11 µM) in [9] and 0.04 µg/mL (≈ 0.0733 µM) in data set [10]. The “cytotoxic activity profile, cell-type selectivity” value in data set [12] was “relatively intense, nonselective cytotoxic activity”.
As to `CO[C@H](C(=O)[C@@H](O)[C@@H](C)O)[C@@H]1Cc2cc3cc(O[C@H]4C[C@@H](O[C@H]5C[C@@H](O)[C@H](O)[C@@H](C)O5)[C@H](O)[C@@H](C)O4)c(C)c(O)c3c(O)c2C(=O)[C@H]1O[C@H]1C[C@@H](O[C@H]2C[C@@H](O[C@H]3C[C@](C)(O)[C@H](O)[C@@H](C)O3)[C@@H](O)[C@@H](C)O2)[C@H](O)[C@@H](C)O1` [Mithramycin A], the “ED50 A431” value in data set [1] came out at 0.09 µg/mL (≈ 0.0829 µM). Moreover, in data set [2], the “ED50 BC-1” value came out at 0.3 µg/mL (≈ 0.276 µM). Further, the “ED50 COL-2” value in data set [3] came out at 0.06 µg/mL (≈ 0.0553 µM). In data set [4], the “ED50 HT-1080” value came out at 1.5 µg/mL (≈ 1.38 µM). Moreover, the “ED50 KB” value in data set [5] came to 0.09 µg/mL (≈ 0.0829 µM). Also, the “ED50 LNCaP” value in [6] came to 0.05 µg/mL (≈ 0.0461 µM). In addition, the “ED50 LU-1” value in data set [7] worked out at 0.2 µg/mL (≈ 0.184 µM). For the same compound, the “ED50 U373” value in data set [8] was determined as 0.04 µg/mL (≈ 0.0369 µM). Besides, the “ED50 ZR 75-1” value in data set [9] worked out at 0.2 µg/mL (≈ 0.184 µM). Besides, the “ED50 MEL-2” value in data set [10] amounted to 1.2 µg/mL (≈ 1.11 µM). In data set [12], the “cytotoxic activity profile, cell-type selectivity” value was “relatively intense, nonselective cytotoxic activity”.
`CC[C@]1(O)C[C@@H]2CN(CCc3c([nH]c4ccccc34)[C@@](C(=O)OC)(c3cc4c(cc3OC)N(C)[C@H]3[C@@](O)(C(=O)OC)[C@H](OC(C)=O)[C@]5(CC)C=CCN6CC[C@]43[C@@H]65)C2)C1` [Vinbiastine, vinblastine]: the IC50 in [1] worked out at 0.05 µg/mL (≈ 0.0617 µM); in [2] it was 0.06 µg/mL (≈ 0.074 µM); in data set [3] it was 0.01 µg/mL (≈ 0.0123 µM); in data set [4], 0.02 µg/mL (≈ 0.0247 µM); in data set [5], 0.04 µg/mL (≈ 0.0493 µM); in data set [6] it was 0.1 µg/mL (≈ 0.123 µM). Further, the IC50 turned out to be 0.02 µg/mL (≈ 0.0247 µM) in data set [7], 1.1 µg/mL (≈ 1.36 µM) in data set [8], 0.3 µg/mL (≈ 0.37 µM) in data set [9] and 0.01 µg/mL (≈ 0.0123 µM) in data set [10]. The “cytotoxic activity profile, cell-type selectivity” value in data set [12] is reported as “relatively intense, nonselective cytotoxic activity”.
For the compound `CC[C@]1(O)C[C@H]2CN(CCc3c([nH]c4ccccc34)[C@@](C(=O)OC)(c3cc4c(cc3OC)N(C=O)[C@H]3[C@@](O)(C(=O)OC)[C@H](OC(C)=O)[C@]5(CC)C=CCN6CC[C@]43[C@@H]65)C2)C1` [Vincristine], the IC50 in data set [1] amounted to 0.01 µg/mL (≈ 0.0121 µM); in [2], 0.01 µg/mL (≈ 0.0121 µM); in data set [3], 0.02 µg/mL (≈ 0.0242 µM); in data set [4], 0.02 µg/mL (≈ 0.0242 µM); in data set [6] it was 0.1 µg/mL (≈ 0.121 µM); in data set [7], 0.05 µg/mL (≈ 0.0606 µM). The IC50 in data set [8] came out at 0.06 µg/mL (≈ 0.0727 µM); in data set [9], 0.4 µg/mL (≈ 0.485 µM); in data set [10], 0.02 µg/mL (≈ 0.0242 µM). In data set [12], the “cytotoxic activity profile, cell-type selectivity” value was “relatively intense, nonselective cytotoxic activity”.
